Assay results from article PMC8297402, “Trifluoromethyl-substituted 3,5-bis(arylidene)-4-piperidones as potential anti-hepatoma and anti-inflammation agents by inhibiting NF-кB activation” (Journal of Enzyme Inhibition and Medicinal Chemistry, 2021).

Experiments:
[1] = test system: A2780; assay: Modified MTT cytotoxicity assay, A2780; conditions: for IC50: Homo sapiens, A2780, read-out: Cytotoxicity IC50 A2780, MTT, ovarian cancer cell line; for SI (selectivity index) A2780: quotient of IC50 for normal (HHL-5) and malignant (A2780) cells
[2] = Modified MTT cytotoxicity assay, normal heptical cell line LO2; assay type: cell-based, human; conditions: human, LO2 cells (normal hepatic cell line), 24 h incubation
Procedure: (§1) The HepG2, SMMC-7721, and LO2 cell lines were maintained at 37 °C, 5% humidified CO2, and 95% atmosphere. Dulbecco's Modified Eagle (DMEM) medium containing 10% foetal bovine serum (FBS) was used for culturing the HepG2 cell line; meanwhile, Roswell Park Memorial Institute (RPMI) 1640 medium containing 10% FBS was used for culturing other cell lines (SMMC-7721, LO2). The HepG2, SMMC-7721 and LO2 cells were seeded in a 96-well plate in 200 μL of medium per well at a density of approximately 8 × 10^3 cells/well and cultured for 24 h, followed by incubation in an incubator of indicated compounds with successive concentrations (10, 5, 2.5, 1.25, 0.625, 0.3125 μg/mL) for 24 h. In the control group, cells were only cultured with culture media. After the media were removed, 20 μL of MTT (5 mg/mL) was added, then cells were incubated for 4 h at 37 °C. […] GraphPad Prism 5 software was used to calculate their IC50 values. Every IC50 value was the average of three replicates. Doxorubicin (DOX) and curcumin were used as positive controls.

[3] = test system: SMMC-7721; assay: Modified MTT cytotoxicity assay, SMMC-7721; assay type: cell-based, Human; conditions: for IC50: Homo sapiens, SMMC-7721, 24 h, MTT, 24 h incubation, three replicates; for SI (selectivity index) SMMC-7721: quotient of IC50 for normal (LO2) and malignant (SMMC-7721) cells
Procedure: as §1

[4] = test system: A549; assay: Modified MTT cytotoxicity assay, A549; conditions: for IC50: Homo sapiens, A549, read-out: Cytotoxicity IC50 A549, MTT, non-small cell lung cancer cell line; for SI (selectivity index) A549: quotient of IC50 for normal (HHL-5) and malignant (A549) cells
[5] = test system: HepG2; assay: Modified MTT cytotoxicity assay, HepG2; assay type: cell-based, Human; conditions: for IC50: Homo sapiens, HepG2, 24 h, MTT, 24 h incubation, three replicates, read-out: Cytotoxicity IC50 HepG2; for SI (selectivity index) HepG2: quotient of IC50 for normal (LO2) and malignant (HepG2) cells
Procedure: as §1

[6] = test system: RAW264.7 cell; assay: MTT toxicity pre-experiment on RAW264.7 macrophagocyte; assay type: cell-based, mouse; conditions: Mus musculus, RAW264.7, BAPs 5 μM, read-out: Survival rate RAW264.7 cell
Procedure: Lipopolysaccharide (LPS) is a key constituent of Gram-negative bacterial endotoxin, which is used to induce an inflammatory response in corresponding inflammatory cells. TNF-α and IL-6 are two kinds of representative pro-inflammatory factors, which produced by LPS-stimulated RAW264.7 macrophage. In our pre-experiments, the toxicity against RAW264.7 macrophagocyte for all title compounds was tested by the MTT assay, and the results were listed in Table 2. The survival rates were above 80% for all BAPs (4-30) at the concentration of 5.0 μM.

[7] = test system: TNF-α; assay: ELISA of TNF-α release in LPS-stimulated RAW264.7 cells; assay type: cell-based, mouse; conditions: Mus musculus, RAW264.7, ELISA, read-out: Inhibition rate TNF-α; for inhibition at 5 µM: RAW264.7, BAPs (5 μM) + LPS (1 μg/mL)
Procedure: (§2) We tested by inhibiting the secretion of TNF-α and IL-6 to better evaluated the anti-inflammatory effects of BAPs. […] Under the stimulation of LPS (1.0 μg/mL) with RAW264.7 cells, the release of TNF-α and IL-6 was detected. Besides, after treated with BAPs (5.0 μM) and LPS (1.0 μg/mL), the release of TNF-α and IL-6 was measured with an ELISA kit (eBioScience, San Diego, California), respectively. In general terms, pyrrolidine dithiocarbamate (PDTC, 30 μM) or BAP (5.0 μM) was used to pretreat cells for 2 h, respectively. Then, LPS (1.0 μg/mL) was added and cells were incubated for another 22 h. Finally, the culture media were centrifuged at 1000 rpm for 10 min, and the expression levels of TNF-α and IL-6 were determined by ELISA.

[8] = Modified MTT cytotoxicity assay, normal heptical cell line HHL-5; conditions: human, HHL-5 cells (normal hepatic cell line)
[9] = test system: IL-6; assay: ELISA of IL-6 release in LPS-stimulated RAW264.7 cells; assay type: cell-based, mouse; conditions: Mus musculus, RAW264.7, ELISA, read-out: Inhibition rate IL-6; for inhibition at 5 µM: RAW264.7, BAPs (5 μM) + LPS (1 μg/mL)
Procedure: as §2

[10] = RAW264.7, PDTC 30 μM + LPS (1 μg/mL)

SMILES | IC50 [1] [µM] | IC50 at 24 h [2] [µM] | IC50 [3] [µM] | IC50 [4] [µM] | IC50 [5] [µM] | viability at 5 µM [6] [%] | inhibition at 5 µM [7] [%] | IC50 [8] [µM] | inhibition at 5 µM [9] [%] | SI (selectivity index) A2780 [1] | SI (selectivity index) SMMC-7721 [3] | SI (selectivity index) A549 [4] | SI (selectivity index) HepG2 [5] | inhibition at 30 µM [7, 10] [%] | inhibition at 30 µM [9, 10] [%]
Cc1ccc(S(=O)(=O)N2C/C(=C\c3ccccc3C(F)(F)F)C(=O)/C(=C/c3ccccc3C(F)(F)F)C2)cc1 [BAP 5] | 4.85 ± 0.47 | 36.2 ± 2.3 | 19.7 ± 0.1 | 14 ± 1.99 | 17.5 ± 0.1 | 93.3 ± 1.7 | 46.2 ± 1 | 24.9 ± 0.1 | 49.6 ± 1.1 |  |  |  |  |  | 
O=C1/C(=C/c2ccccc2C(F)(F)F)CN(S(=O)(=O)c2ccc(F)cc2)C/C1=C\c1ccccc1C(F)(F)F [BAP 8] | 1.44 ± 0.54 | 13.8 ± 1.1 | 8.3 ± 0.2 | 13.5 ± 1.39 | 4 ± 0.2 | 82.1 ± 1.9 | 46.8 ± 4.2 | 11.8 ± 0.2 | 51.3 ± 3.3 |  |  |  |  |  | 
O=C1/C(=C/c2ccccc2C(F)(F)F)CN(S(=O)(=O)c2ccc(Cl)cc2)C/C1=C\c1ccccc1C(F)(F)F [BAP 9] | 0.62 ± 0.07 | 30.9 ± 0.3 | 10.4 ± 0.3 | 1.86 ± 0.61 | 11 ± 0.3 | 92.8 ± 4.2 | 47.1 ± 6.4 | 9.3 ± 0.1 | 38.2 ± 2.5 |  |  |  |  |  | 
N#Cc1ccc(S(=O)(=O)N2C/C(=C\c3ccccc3C(F)(F)F)C(=O)/C(=C/c3ccccc3C(F)(F)F)C2)cc1 [BAP 11] | 32.3 ± 7.69 | 13 ± 0.1 | 12 ± 0.2 | 64.2 ± 10.2 | 9 ± 0.2 | 84.2 ± 2 | 58.9 ± 3.2 | 15.5 ± 0.3 | 59.1 ± 5.2 | 0.5 | 1.1 | 0.2 | 1.4 |  | 
Cc1ccc(S(=O)(=O)N2C/C(=C\c3cccc(C(F)(F)F)c3)C(=O)/C(=C/c3cccc(C(F)(F)F)c3)C2)cc1 [BAP 14] | 0.14 ± 0.03 | 15.9 ± 0.1 | 5.6 ± 0.1 | 0.23 ± 0.04 | 11.1 ± 0.2 | 89.2 ± 1.8 | 60.2 ± 1.2 | 9.4 ± 0.2 | 66.3 ± 2 |  |  |  |  |  | 
O=C1/C(=C/c2cccc(C(F)(F)F)c2)CN(S(=O)(=O)c2ccc(F)cc2)C/C1=C\c1cccc(C(F)(F)F)c1 [BAP 17] | 0.14 ± 0.01 | 19.5 ± 0.1 | 4.8 ± 0.3 | 0.28 ± 0.01 | 3.4 ± 0.2 | 85.1 ± 2 | 65.6 ± 1.2 | 3.5 ± 0.5 | 67.6 ± 2.2 |  |  |  |  |  | 
O=C1/C(=C/c2cccc(C(F)(F)F)c2)CN(S(=O)(=O)c2ccc(Cl)cc2)C/C1=C\c1cccc(C(F)(F)F)c1 [BAP 18] | 0.19 ± 0.02 | 14.1 ± 0.1 | 13.9 ± 0.1 | 0.15 ± 0.02 | 5.2 ± 0.1 | 85.7 ± 4.2 | 50.6 ± 3.2 | 2.2 ± 0.1 | 46.2 ± 2.1 |  |  |  |  |  | 
N#Cc1ccc(S(=O)(=O)N2C/C(=C\c3cccc(C(F)(F)F)c3)C(=O)/C(=C/c3cccc(C(F)(F)F)c3)C2)cc1 [BAP 20] | 0.15 ± 0.02 | 17.4 ± 0.1 | 4.3 ± 0.2 | 0.17 ± 0.002 | 0.9 ± 0.1 | 83.7 ± 1.3 | 75.2 ± 2.7 | 2.4 ± 0.4 | 77.7 ± 1.5 | 16.0 | 4.0 | 14.1 | 19.3 |  | 
COc1cc(/C=C/C(=O)CC(=O)/C=C/c2ccc(O)c(OC)c2)ccc1O [Curcumin, reference compound] | 44 ± 9.82 | 29.1 ± 2.1 | ~19.5 | 32 ± 3.55 | ~15.3 |  |  | 24.2 ± 0.5 |  | 0.5 | 1.5 | 0.8 | 1.9 |  | 
S=C(S)N1CCCC1 [PDTC, pyrrolidine dithiocarbamate, reference compound] |  |  |  |  |  |  |  |  |  |  |  |  |  | ~68.2 | ~59.1
